The test system of experiment [1] is human peripheral blood CD4+ lymphocytes. Conditions: cited from earlier work.
For experiment [2], the system named is CXCR4. Conditions: cited from earlier work.
Experiment [3] relates to CXCL12. The note with it: cited from earlier work.
For experiment [4], the target named is CXCL12 to CXCR4 (Homo sapiens, UniProt P48061). The note with it: cited from earlier work.
Experiment [5] relates to Balb/c mice sensitized to ovalbumin. Conditions: mouse model of airway allergic eosinophilic inflammation; cited from earlier work.
For experiment [6], the target named is T1, CCL17 (Homo sapiens, UniProt Q92583).
T1 sequence (Q92583 24-94): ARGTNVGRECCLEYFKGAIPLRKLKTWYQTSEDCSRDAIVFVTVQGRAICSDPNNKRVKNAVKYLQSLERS
Kind of experiment: Selectivity towards chemokine CCL17. The note with it: 5 μM. On the procedure:
Furthermore, the selectivity of (1) was also evaluated towards two other chemokines, namely CCL17 and CCL22, with no activity at 5 μM (data not shown).

The subject of experiment [7] is MRL/lpr mice. Kind of experiment: Peripheral hypercellularity in MRL/lpr lupus prone mice. Type of experiment: in vivo. Conditions: single i.v. administration, 100 μg/mouse, counted five days later; p <0.05. As for the experimental part:
Effect of compound (1) and classical anti-inflammatory drugs on peripheral hypercellularity in MRL/lpr mice. MRL/lpr mice (11-13 week-old) received intravenously a single administration of either compound (1) or chalcone 4-Phosphate or indicated molecules in saline (100 μg/mouse of each). The control group received saline only. The number of white blood cells (WBCs)/mL was evaluated by counting cells five days later. The results are expressed as the mean reduction of peripheral WBCs percentage+/−SEM. Statistical significance was assessed using the unpaired t-test. n=number of mice/group; ns=non-significant. […]
The test was as described previously (Schall et al., 2012; Briand et al., 2014). […] After centrifugation, white blood cells (WBCs) resuspended in phosphate buffer saline containing fetal calf serum were stained with acridine orange/propidium iodide and counted using a LUNA FL apparatus (logos Biosystems, Annandale, USA). The number of living WBCs in each group was compared to the one counted in the control group and the decrease of peripheral cell number was calculated. […] The results are expressed as the mean decreased of peripheral WBCs percentage SEM. Statistical differences were determined using the unpaired t test. Statistical results were calculated using the graphPad Prism software.

The text below walks through data of patent US11046657B2, “Pyrimidinone derivatives and uses thereof to neutralize the biological activity of chemokines” (Centre National de la Recherche Scientifique (CNRS), priority 2016, dated 2021).

Each structure is given as a SMILES string.

Sequence of CXCL12 to CXCR4 (P48061 22-89 limits assumed): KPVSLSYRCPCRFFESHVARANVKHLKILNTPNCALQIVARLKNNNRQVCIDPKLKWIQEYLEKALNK

With `COc1cc(/C=C/C(=O)c2ccc(Cl)cc2)ccc1O` [Chalcone-4, (E)-1-(4-Chlorophenyl)-3-(4-hydroxy-3-methoxyphenyl)prop-2-en-1-one, reference compound], the “Chemotaxis of human peripheral blood CD4+ lymphocytes” value in experiment [1] is on record as “blocks chemotaxis”. In addition, the “CXCR4 internalization in response to CXCL12” value in experiment [2] is “prevents CXCR4 internalization”. The Intracellular calcium responses result in experiment [3] is “inhibits intracellular calcium responses”. Further, the “Binding of CXCL12 to CXCR4” value in experiment [4] was “inhibits”. In addition, the “Inflammatory infiltration, in particular of eosinophils” value in experiment [5] was “inhibits inflammatory infiltration”.
With `COc1cc(-c2cc(-c3ccc(Cl)cc3)nc(=O)[nH]2)ccc1O` [compound (1), 4-(4-Chlorophenyl)-6-(4-hydroxy-3-methoxyphenyl)pyrimidin-2(1H)-one], in experiment [6], the “Activity towards CCL17” value is reported as “no activity”. Moreover, in experiment [7], the “Peripheral blood hypercellularity (WBCs)” value is recorded as “significantly reduce peripheral blood hypercellularity”.
